In the NIST ThermoML archive (doi:10.1021/je400055v):

Assay: xn = mol fraction of the nth substance listed
Settings: Liquid, Vibrating tube method

CCCCCCCCCCC [undecane] + CCCCCCC
Settings	mass density [kg/m3]
342.97 K, 1001 kPa, x2 = 0.9511	645.7
342.97 K, 2000 kPa, x2 = 0.9511	647
342.97 K, 3000 kPa, x2 = 0.9511	648.4
342.97 K, 4000 kPa, x2 = 0.9511	649.7
342.97 K, 5000 kPa, x2 = 0.9511	650.9
342.97 K, 6000 kPa, x2 = 0.9511	652.2
342.97 K, 7000 kPa, x2 = 0.9511	653.4
342.97 K, 8000 kPa, x2 = 0.9511	654.6
342.97 K, 9000 kPa, x2 = 0.9511	655.8
342.97 K, 10000 kPa, x2 = 0.9511	657
342.97 K, 11000 kPa, x2 = 0.9511	658.1
342.97 K, 12000 kPa, x2 = 0.9511	659.2
342.97 K, 13000 kPa, x2 = 0.9511	660.3
342.97 K, 14001 kPa, x2 = 0.9511	661.4
342.97 K, 15001 kPa, x2 = 0.9511	662.5
342.97 K, 16000 kPa, x2 = 0.9511	663.5
342.97 K, 17001 kPa, x2 = 0.9511	664.5
342.97 K, 18001 kPa, x2 = 0.9511	665.6
342.97 K, 19000 kPa, x2 = 0.9511	666.6
342.97 K, 20000 kPa, x2 = 0.9511	667.5
342.97 K, 21001 kPa, x2 = 0.9511	668.5
342.97 K, 22000 kPa, x2 = 0.9511	669.4
342.97 K, 23001 kPa, x2 = 0.9511	670.4
342.97 K, 24000 kPa, x2 = 0.9511	671.3
342.97 K, 25000 kPa, x2 = 0.9511	672.2
343.01 K, 2001 kPa, x2 = 0.5063	680.1
343.01 K, 3000 kPa, x2 = 0.5063	681.2
343.01 K, 4000 kPa, x2 = 0.5063	682.3
343.01 K, 5000 kPa, x2 = 0.5063	683.4
343.01 K, 6000 kPa, x2 = 0.5063	684.5
343.01 K, 7000 kPa, x2 = 0.5063	685.5
343.01 K, 8001 kPa, x2 = 0.5063	686.5
343.01 K, 9000 kPa, x2 = 0.5063	687.6
343.01 K, 10000 kPa, x2 = 0.5063	688.6
343.01 K, 11000 kPa, x2 = 0.5063	689.5
343.01 K, 12000 kPa, x2 = 0.5063	690.5
343.01 K, 13000 kPa, x2 = 0.5063	691.5
343.01 K, 14000 kPa, x2 = 0.5063	692.4
343.01 K, 15000 kPa, x2 = 0.5063	693.4
343.01 K, 16000 kPa, x2 = 0.5063	694.3
343.01 K, 17001 kPa, x2 = 0.5063	695.2
343.01 K, 18000 kPa, x2 = 0.5063	696.1
343.01 K, 19000 kPa, x2 = 0.5063	697
343.01 K, 20000 kPa, x2 = 0.5063	697.8
343.01 K, 21001 kPa, x2 = 0.5063	698.7
343.01 K, 22050 kPa, x2 = 0.5063	699.5
343.01 K, 23000 kPa, x2 = 0.5063	700.4
343.01 K, 24000 kPa, x2 = 0.5063	701.2
343.01 K, 25000 kPa, x2 = 0.5063	702
343.02 K, 1001 kPa, x2 = 0.05	701.5
343.02 K, 2001 kPa, x2 = 0.05	702.5
343.02 K, 3000 kPa, x2 = 0.05	703.6
343.02 K, 4000 kPa, x2 = 0.05	704.6
343.02 K, 5000 kPa, x2 = 0.05	705.5
343.02 K, 6000 kPa, x2 = 0.05	706.5
343.02 K, 7000 kPa, x2 = 0.05	707.5
343.02 K, 8001 kPa, x2 = 0.05	708.4
343.02 K, 9000 kPa, x2 = 0.05	709.3
343.02 K, 10000 kPa, x2 = 0.05	710.2
343.02 K, 11000 kPa, x2 = 0.05	711.1
343.02 K, 12000 kPa, x2 = 0.05	712
343.02 K, 13000 kPa, x2 = 0.05	712.9
343.02 K, 14000 kPa, x2 = 0.05	713.8
343.02 K, 15000 kPa, x2 = 0.05	714.6
343.02 K, 16000 kPa, x2 = 0.05	715.5
343.02 K, 17000 kPa, x2 = 0.05	716.3
343.02 K, 18000 kPa, x2 = 0.05	717.1
343.02 K, 19000 kPa, x2 = 0.05	717.9
343.02 K, 20000 kPa, x2 = 0.05	718.7
343.02 K, 21000 kPa, x2 = 0.05	719.5
343.02 K, 22001 kPa, x2 = 0.05	720.3
343.02 K, 23000 kPa, x2 = 0.05	721.1
343.02 K, 24000 kPa, x2 = 0.05	721.8
343.02 K, 25000 kPa, x2 = 0.05	722.6
343.03 K, 1000 kPa, x2 = 0.7482	662.4
343.03 K, 2000 kPa, x2 = 0.7482	663.6
343.03 K, 3000 kPa, x2 = 0.7482	664.9
343.03 K, 4000 kPa, x2 = 0.7482	666.1
343.03 K, 5000 kPa, x2 = 0.7482	667.2
343.03 K, 6000 kPa, x2 = 0.7482	668.4
343.03 K, 7000 kPa, x2 = 0.7482	669.5
343.03 K, 8000 kPa, x2 = 0.7482	670.6
343.03 K, 9000 kPa, x2 = 0.7482	671.7
343.03 K, 10000 kPa, x2 = 0.7482	672.8
343.03 K, 11000 kPa, x2 = 0.7482	673.9
343.03 K, 12000 kPa, x2 = 0.7482	674.9
343.03 K, 13000 kPa, x2 = 0.7482	675.9
343.03 K, 14000 kPa, x2 = 0.7482	677
343.03 K, 15000 kPa, x2 = 0.7482	678
343.03 K, 16000 kPa, x2 = 0.7482	678.9
343.03 K, 17000 kPa, x2 = 0.7482	679.9
343.03 K, 18000 kPa, x2 = 0.7482	680.8
343.03 K, 19000 kPa, x2 = 0.7482	681.8
343.03 K, 20000 kPa, x2 = 0.7482	682.7
343.03 K, 21000 kPa, x2 = 0.7482	683.6
343.03 K, 22000 kPa, x2 = 0.7482	684.5
343.03 K, 23000 kPa, x2 = 0.7482	685.4
343.03 K, 24000 kPa, x2 = 0.7482	686.2
343.03 K, 25000 kPa, x2 = 0.7482	687.1
343.06 K, 1010 kPa, x2 = 0.2346	693.6
343.06 K, 2010 kPa, x2 = 0.2346	694.6
343.06 K, 3010 kPa, x2 = 0.2346	695.7
343.06 K, 4011 kPa, x2 = 0.2346	696.7
343.06 K, 5011 kPa, x2 = 0.2346	697.7
343.06 K, 6011 kPa, x2 = 0.2346	698.7
343.06 K, 7012 kPa, x2 = 0.2346	699.7
343.06 K, 8012 kPa, x2 = 0.2346	700.6
343.06 K, 9012 kPa, x2 = 0.2346	701.6
343.06 K, 10013 kPa, x2 = 0.2346	702.5
343.06 K, 11013 kPa, x2 = 0.2346	703.5
343.06 K, 12014 kPa, x2 = 0.2346	704.4
343.06 K, 13014 kPa, x2 = 0.2346	705.3
343.06 K, 14014 kPa, x2 = 0.2346	706.2
343.06 K, 15015 kPa, x2 = 0.2346	707
343.06 K, 16016 kPa, x2 = 0.2346	707.9
343.06 K, 17016 kPa, x2 = 0.2346	708.8
343.06 K, 18017 kPa, x2 = 0.2346	709.6
343.06 K, 19017 kPa, x2 = 0.2346	710.4
343.06 K, 20018 kPa, x2 = 0.2346	711.3
343.06 K, 21051 kPa, x2 = 0.2346	712.1
343.06 K, 22053 kPa, x2 = 0.2346	712.9
343.06 K, 23055 kPa, x2 = 0.2346	713.7
343.06 K, 24057 kPa, x2 = 0.2346	714.5
343.06 K, 25059 kPa, x2 = 0.2346	715.2
352.9 K, 1001 kPa, x2 = 0.9511	636.9
352.9 K, 2000 kPa, x2 = 0.9511	638.4
352.9 K, 3000 kPa, x2 = 0.9511	639.8
352.9 K, 4000 kPa, x2 = 0.9511	641.1
352.9 K, 5000 kPa, x2 = 0.9511	642.5
352.9 K, 6000 kPa, x2 = 0.9511	643.8
352.9 K, 7000 kPa, x2 = 0.9511	645.1
352.9 K, 8000 kPa, x2 = 0.9511	646.4
352.9 K, 9000 kPa, x2 = 0.9511	647.7
352.9 K, 10000 kPa, x2 = 0.9511	648.9
352.9 K, 11000 kPa, x2 = 0.9511	650.1
352.9 K, 12000 kPa, x2 = 0.9511	651.3
352.9 K, 13000 kPa, x2 = 0.9511	652.5
352.9 K, 14001 kPa, x2 = 0.9511	653.6
352.9 K, 15001 kPa, x2 = 0.9511	654.8
352.9 K, 16000 kPa, x2 = 0.9511	655.9
352.9 K, 17001 kPa, x2 = 0.9511	657
352.9 K, 18001 kPa, x2 = 0.9511	658
352.9 K, 19000 kPa, x2 = 0.9511	659.1
352.9 K, 20000 kPa, x2 = 0.9511	660.1
352.9 K, 21001 kPa, x2 = 0.9511	661.2
352.9 K, 22000 kPa, x2 = 0.9511	662.2
352.9 K, 23001 kPa, x2 = 0.9511	663.2
352.9 K, 24000 kPa, x2 = 0.9511	664.1
352.9 K, 25000 kPa, x2 = 0.9511	665.1
352.96 K, 1001 kPa, x2 = 0.05	694
352.96 K, 2001 kPa, x2 = 0.05	695.1
352.96 K, 2001 kPa, x2 = 0.5063	672.2
352.96 K, 3000 kPa, x2 = 0.05	696.1
352.96 K, 3000 kPa, x2 = 0.5063	673.4
352.96 K, 4000 kPa, x2 = 0.05	697.2
352.96 K, 4000 kPa, x2 = 0.5063	674.6
352.96 K, 5000 kPa, x2 = 0.05	698.2
352.96 K, 5000 kPa, x2 = 0.5063	675.7
352.96 K, 6000 kPa, x2 = 0.05	699.2
352.96 K, 6000 kPa, x2 = 0.5063	676.8
352.96 K, 7000 kPa, x2 = 0.05	700.2
352.96 K, 7000 kPa, x2 = 0.5063	677.9
352.96 K, 8001 kPa, x2 = 0.05	701.2
352.96 K, 8001 kPa, x2 = 0.5063	679
352.96 K, 9000 kPa, x2 = 0.05	702.2
352.96 K, 9000 kPa, x2 = 0.5063	680.1
352.96 K, 10000 kPa, x2 = 0.05	703.2
352.96 K, 10000 kPa, x2 = 0.5063	681.2
352.96 K, 11000 kPa, x2 = 0.05	704.1
352.96 K, 11000 kPa, x2 = 0.5063	682.2
352.96 K, 12000 kPa, x2 = 0.05	705.1
352.96 K, 12000 kPa, x2 = 0.5063	683.2
352.96 K, 13000 kPa, x2 = 0.05	706
352.96 K, 13000 kPa, x2 = 0.5063	684.2
352.96 K, 14000 kPa, x2 = 0.05	706.9
352.96 K, 14000 kPa, x2 = 0.5063	685.2
352.96 K, 15000 kPa, x2 = 0.05	707.8
352.96 K, 15000 kPa, x2 = 0.5063	686.2
352.96 K, 16000 kPa, x2 = 0.05	708.7
352.96 K, 16000 kPa, x2 = 0.5063	687.2
352.96 K, 17000 kPa, x2 = 0.05	709.6
352.96 K, 17001 kPa, x2 = 0.5063	688.1
352.96 K, 18000 kPa, x2 = 0.05	710.4
352.96 K, 18000 kPa, x2 = 0.5063	689.1
352.96 K, 19000 kPa, x2 = 0.05	711.3
352.96 K, 19000 kPa, x2 = 0.5063	690
